In patent publication US10047105B2, “Gyrase inhibitors” (Merck Sharp & Dohme Corp., priority 2009, dated 2018):
Values after ≈ are worked out from the molar mass of the structure shown.

How the values were obtained:
S. aureus ATCC 13709 = assay: MIC, antibacterial potency, S. aureus; assay type: cell-based
S. pneumoniae ATCC 51916 = assay: MIC, S. pneumoniae; assay type: cell-based
[1] = S. pneumoniae (Spn52), in µg/mL

Row | SMILES | MIC, SA (S. aureus ATCC 13709; S. aureus) [µg/mL] | MIC Spn52 (S. pneumoniae ATCC 51916; S. pneumoniae) [µg/mL] | MIC, SA (S. aureus ATCC 13709; S. aureus (SA), in µg/mL) | MIC Spn52 (S. pneumoniae ATCC 51916; [1])
1 | CCc1[nH]c2nc(Sc3cnc4nccnc4c3)nc(N3CC(CN)C3)c2c1Br [700,467] | 4 (≈ 8.49 µM) | 16 (≈ 33.9 µM) |  | 
2 | CCc1[nH]c2nc(Oc3cncnc3)nc(Oc3cncc(C#N)c3)c2c1Br [700,878] |  |  | <=0.5 | <=0.5
3 | CCc1[nH]c2nc(Sc3cnc4nccnc4c3)nc(N3CC(CNC(=O)C4CC4)C3)c2c1Cl [700,516] | ≤ 0.5 | 1 (≈ 2.02 µM) |  | 
4 | CCc1[nH]c2nc(Sc3cc(=O)n(CC(C)O)c(=O)[nH]3)nc(N3CC(O)C3)c2c1Br (centres unmarked) [700,451] | 1 (≈ 2.01 µM) | 4 (≈ 8.04 µM) |  | 
5 | CCOC(=O)c1nc2cc(Sc3nc(N4CC(O)C4)c4c(Br)c(CC)[nH]c4n3)cnc2n(C)c1=O [700,475] | > 64 | > 64 |  | 
6 | CCc1[nH]c2nc(Sc3cnc4nccnc4c3)nc(N3CC(CNC(=O)COCCOCCOC)C3)c2c1Cl [700,523] | 2 (≈ 3.41 µM) | 4 (≈ 6.81 µM) |  | 
7 | CCc1[nH]c2nc(Sc3cnc4nccnc4c3)nc(N3CC(NC(=O)c4cnccn4)C3)c2c1Cl [700,439] | ≤ 0.5 | 1 (≈ 1.93 µM) |  | 
8 | CCc1[nH]c2nc(Oc3cccnc3)nc(N3CCN(C(C)=O)CC3)c2c1Cl.O=C(O)C(F)(F)F [700,459] | 16 | 32 |  | 
9 | CCc1[nH]c2nc(Sc3cnc4nccnc4c3)nc(N3CCC(C(O)c4cccs4)CC3)c2c1Cl.O=C(O)C(F)(F)F (centres unmarked) [700,656] | ≤ 0.5 | 2 |  | 
10 | CCOc1nc(Oc2cccnc2)nc2[nH]c(CC)c(Cl)c12.O=C(O)C(F)(F)F [700,665] | 2 | 8 |  | 
11 | CCc1[nH]c2nc(Nc3cnc4c(cnn4C(C)C)c3)nc(N3CC(O)C3)c2c1Br [700,385] | 8 (≈ 17 µM) | > 64 |  | 
12 | Cc1[nH]c2nc(Sc3cc(=O)[nH]c(=O)[nH]3)nc(N3CC(O)C3)c2c1Br [700,362] | > 64 | > 64 |  | 
13 | CCc1[nH]c2nc(Oc3cccnc3)nc(Oc3cccnc3)c2c1Br.O=C(O)C(F)(F)F [700,598] | 1 | 2 |  | 
14 | CCc1[nH]c2nc(Sc3nc(C(=O)O)cs3)nc(N3CCC(=O)C3)c2c1Cl.O=C(O)C(F)(F)F [700,357] | > 64 | > 64 |  | 
15 | CCc1[nH]c2nc(Sc3cnc4cccnc4c3)nc(N3CC(NC)C3)c2c1Cl [700,713] | 1 (≈ 2.35 µM) | 2 (≈ 4.7 µM) |  | 
16 | CCOc1nc(Sc2nc(C(=O)OC)c(C(C)C)s2)nc2[nH]c(CC)c(Br)c12 [700,301] | 64 (≈ 132 µM) | > 64 |  | 
17 | CCc1[nH]c2nc(Sc3cnc4nccnc4c3)nc(N3C[C@@H]4[C@H](C3)[C@@]4(N)CN)c2c1Cl [700,884] |  |  | 4 | 16
18 | CCc1[nH]c2nc(Cc3cccnc3)nc(Oc3cccc(C#N)c3)c2c1Cl [700,875] |  |  | 32 | >32
19 | CCc1[nH]c2nc(Sc3ccc4ccc(C(=O)O)nc4c3)nc(N3CC(CNS(C)(=O)=O)C3)c2c1Cl [700,806] |  |  | 4 | 16
20 | CCc1[nH]c2nc(Nc3ccc4c(N)nc(C)nc4c3)nc(N3CC(N)C3)c2c1Cl.O=C(O)C(F)(F)F.O=C(O)C(F)(F)F [700,531] | 8 | 4 |  | 
21 | CCc1[nH]c2nc(Sc3cnc4nccnc4c3)nc(N3CC(NS(=O)(=O)CC(F)(F)F)C3)c2c1Cl [700,436] | ≤ 0.5 | 1 (≈ 1.79 µM) |  | 
22 | CCc1[nH]c2nc(Sc3cnc4nccnc4c3)nc(Oc3cccnc3)c2c1Cl [700,432] | 1 (≈ 2.29 µM) | 4 (≈ 9.18 µM) |  | 
23 | CCc1[nH]c2nc(Sc3cnc4nccnc4c3)nc(N3CCC(n4c(=O)[nH]c5cc(Cl)ccc54)CC3)c2c1Cl.O=C(O)C(F)(F)F [700,792] |  |  | >64 | >64
24 | CCc1[nH]c2nc(Sc3cnc4nccnc4c3)nc(N3CC(CNC(=O)C4CNC4)C3)c2c1Cl [700,858] |  |  | 8 | >64
25 | CCc1[nH]c2nc(Sc3cnc4nccnc4c3)nc(-n3ccnc3)c2c1Cl [700,542] | 2 (≈ 4.89 µM) | 8 (≈ 19.6 µM) |  | 
26 | CCc1[nH]c2nc(Sc3cnc(N)nc3)nc(N3CC4CNC4C3)c2c1Cl (centres unmarked) [700,790] |  |  | 16 | 64
27 | CCOc1nc(Sc2nc(C(=O)O)c(C(C)C)s2)nc2[nH]c(CC)c(Br)c12 [700,303] | 4 (≈ 8.49 µM) | 32 (≈ 67.9 µM) |  | 
28 | CCc1[nH]c2nc(Oc3cncc(C#N)c3)nc(Oc3ccc(OC)c(OC)c3)c2c1Cl [700,813] |  |  | >64 | >64

Row | SMILES | MIC, SA (S. aureus ATCC 13709; S. aureus) [µg/mL] | MIC Spn52 (S. pneumoniae ATCC 51916; S. pneumoniae) [µg/mL] | MIC, SA (S. aureus ATCC 13709; S. aureus (SA), in µg/mL) | MIC Spn52 (S. pneumoniae ATCC 51916; [1])
29 | CCc1[nH]c2nc(SC)nc(CCC3OCCCO3)c2c1Br [700,332] | > 64 | > 64 |  | 
30 | CCc1[nH]c2nc(Sc3cnc4nccnc4c3)nc(N3CC(NS(C)(=O)=O)C3)c2c1Cl [700,435] | ≤ 0.5 | 1 (≈ 2.04 µM) |  | 
31 | CCc1[nH]c2nc(Sc3cccnc3)nc(NCCCn3ccnc3)c2c1C=O.O=C(O)C(F)(F)F.O=C(O)C(F)(F)F [700,261] | 16 | 32 |  | 
32 | CCc1[nH]c2nc(Sc3nc(C(=O)O)cs3)nc(N3CC(O)C3)c2c1Cl [700,340] | > 64 | > 64 |  | 
33 | CCc1[nH]c2nc(Sc3cnc4nccnc4c3)nc(N3CC[C@H](N(C)C)C3)c2c1Cl.O=C(O)C(F)(F)F [700,497] | 1 | 4 |  | 
34 | CCc1[nH]c2nc(Sc3ccc4c(N5CC(N)C5)cc(C(=O)O)nc4c3)nc(N3CC4C(N)C4C3)c2c1Cl (centres unmarked) [700,661] | > 64 | > 64 |  | 
35 | CCOc1nc(Cc2cccnc2)nc2[nH]c(CC)c(Cl)c12 [700,474] | 8 (≈ 25.3 µM) | 8 (≈ 25.3 µM) |  | 
36 | CCOc1nc(Sc2cc(C(=O)NC3CC3)ccn2)nc2[nH]c(CC)c(Br)c12 [700,305] | > 64 | > 64 |  | 
37 | CCc1[nH]c2nc(Sc3ccc[n+]([O-])c3)nc(N3CC(N)C3)c2c1Cl [700,562] | 16 (≈ 42.5 µM) | 64 (≈ 170 µM) |  | 
38 | CCc1[nH]c2nc(Sc3cnc4nccnc4c3)nc(N3CCC(NC)C3)c2c1Cl.O=C(O)C(F)(F)F (centres unmarked) [700,567] | 7 | 4 |  | 
39 | CCc1[nH]c2nc(Sc3cnc4nccnc4c3)nc(N3CC(Oc4cccnc4)C3)c2c1Cl.O=C(O)C(F)(F)F.O=C(O)C(F)(F)F [700,667] | ≤ 0.5 | 1 |  | 
40 | CCc1[nH]c2nc(Sc3nc(C(=O)O)cs3)nc(N3CC(Cc4c(Cl)ncnc4Cl)C3)c2c1Cl.O=C(O)C(F)(F)F [700,317] | > 64 | > 64 |  | 
41 | CCc1[nH]c2nc(Sc3cnc4nccnc4c3)nc(N3CCC[C@H]3CN)c2c1Cl [700,462] | > 64 | 32 (≈ 72.6 µM) |  | 
42 | CCc1[nH]c2nc(Oc3cncc(OC)c3)nc(Oc3cncc(OC)c3)c2c1Cl.O=C(O)C(F)(F)F [700,578] | ≤ 0.5 | 1 |  | 
43 | CCc1[nH]c2nc(Sc3cnc4nccnc4c3)nc(N3CC(N4CCNCC4)C3)c2c1Cl.O=C(O)C(F)(F)F.O=C(O)C(F)(F)F [700,672] | 8 | 8 |  | 
44 | CCc1[nH]c2nc(Sc3cnc4nccnc4c3)nc(N3C[C@H]4CCCN[C@H]4C3)c2c1Cl.O=C(O)C(F)(F)F [700,568] | ≤ 0.5 | 2 |  | 
45 | CCOc1nc(Sc2ccc(N3CCC(O)CC3)nn2)nc2[nH]c(CC)c(Cl)c12 [700,327] | 32 (≈ 73.6 µM) | 64 (≈ 147 µM) |  | 
46 | CCc1[nH]c2nc(Sc3cnc4nccnc4c3)nc(N3CC4CN(C(=O)OC(C)(C)C)C4C3)c2c1Cl (centres unmarked) [700,571] | 8 (≈ 14.8 µM) | 8 (≈ 14.8 µM) |  | 
47 | CCc1[nH]c2nc(Oc3cncnc3)nc(N(C)C)c2c1Br [700,866] |  |  | 1 | 8
48 | CCc1[nH]c2nc(Sc3cnc4cccnc4n3)nc(N3CC(NC(=O)OCc4ccccc4)C3)c2c1Br [700,390] | ≤ 0.5 | ≤ 0.5 |  | 
49 | CCc1[nH]c2nc(Sc3cnc4cccnc4c3)nc(N3CC(N)C4(CC4)C3)c2c1Cl (centres unmarked) [700,869] |  |  | 2 | 4
50 | CCOc1nc(Nc2cnc3c(c2)nnn3C)nc2[nH]c(CC)c(Br)c12.O=C(O)C(F)(F)F [700,600] | > 8 | > 8 |  | 
51 | CCc1[nH]c2nc(Sc3cnc4nccnc4c3)nc(N3CCOCC3)c2c1Br [700,423] | 1 (≈ 2.12 µM) | 2 (≈ 4.23 µM) |  | 
52 | CCc1[nH]c2nc(Sc3nc(C(=O)O)c(Cl)s3)nc(N3CC(O)C3)c2c1Br [700,391] | > 64 | > 64 |  | 
53 | CCc1[nH]c2nc(Sc3cnc4nccnc4c3)nc(N3CC(N)C3)c2c1Br [700,469] | 1 (≈ 2.19 µM) | 2 (≈ 4.37 µM) |  | 
54 | CCc1[nH]c2nc(Sc3cnc4nccnc4c3)nc(N3CCC[C@@H](N)C3)c2c1Cl [700,588] | 8 (≈ 18.1 µM) | 8 (≈ 18.1 µM) |  | 
55 | CCc1[nH]c2nc(Sc3cnc4c(N)nc(N)nc4c3)nc(N3CC(C(=O)O)C3)c2c1Cl.O=C(O)C(F)(F)F.O=C(O)C(F)(F)F [700,464] | > 64 | > 64 |  | 
